Measurements published in patent publication US8507440B2, “Protein kinase C peptides for use in withdrawal” (The Board of Trustees of the Leland Stanford Junior …, priority 2002, dated 2013).
Ends that are not written are not given here.

What was measured:
[1] = target: T1, γPKC (Rattus norvegicus, UniProt P63319); assay type: cell-based
T1 construct: from tissue; host or cells: lumbar spinal cord slices of postnatal day 7-10 Sprague-Dawley rats
Experimental: Fluorescence immunocytochemical studies were performed on the spinal cord sections, as described in Example 3. The sections were incubated with an anti-γPKC antibody and an anti-neuronal antibody to identify neurons. […] Translocation of γPKC was quantified by counting the number of cells with γPKC localized to the nucleus before (control) and after application of ethanol, as well as after washing with artificial cerebrospinal fluid. […] Two to three sections per animal were counted.
Fluorescence immunocytochemical studies were performed on spinal cord sections […] from control slices (perfused with ACSF for 70 minutes) and EtOH treated slices (perfused with ACSF for 30 minutes followed by 20 min 100 mM EtOH and 20 min wash with ACSF). The sections were incubated with a rabbit anti-PKCg polyclonal antibody (1:500) overnight at 4° C. In some cord sections, a mouse anti-neuronal nuclei monoclonal antibody (NeuN, 1:750) was added to identify neurons. After several washes with ACSF, the sections were labeled for 2 hours at room temperature with fluorescein-labeled secondary antibodies (1:500). Double immunofluorescence was assessed with a laser confocal microscope.

[2] = system: 7 day old and 21 day old rats; test: ethanol withdrawal mechanical allodynia testing (von Frey threshold withdrawal force); assay type: in vivo, rat
[3] = system: postnatal day 7 rats; test: natural morphine withdrawal, mechanical allodynia and thermal hyperalgesia in vivo; parameters: species or system rat; settings: 10 μM intrathecally 2.5 hours after morphine 1 mg/kg; p<0.05 versus Tat carrier or saline
Experimental: Another study was performed to investigate the roles of PKC isozymes in natural withdrawal, which more closely resembles the clinical setting in addictive sequela. In this study, postnatal day 7 rats were given a single injection of morphine (1 mg/kg) and allowed to undergo natural withdrawal, i.e., naloxone was not administered to precipitate withdrawal. The treatment protocol is shown in FIG. 6A, where 2.5 hours after morphine delivery, εV1-2 or γV5-3 peptide inhibitors were administered intrathecally. Mechanical allodynia and thermal hyperalgesia were evaluated at hourly intervals according to the procedure described in Example 2.
To measure mechanical thresholds, rats were placed on an elevated wire mesh (2 mm openings). Von Frey hairs (Stoelting Co., WoodDale, Ill., USA) were used to elicit a cutaneous flexion withdrawal response as described by Fitzgerald et al. (Fitzgerald M., et al., PAIN […] INFANTS, CHILDREN AND ADOLESCENTS; Schetchter and Yaster, Eds., pp 11-32, Williams and Williams (Baltimore, Md.) (1993). Von Frey hairs of increasing intensity were applied three times to the plantar surface of the left hind paw until a paw withdrawal was elicited. The lowest intensity Von Frey hair required to produce a withdrawal reflex was recorded as the response threshold to a low-intensity mechanical stimulus. […]

[4] = system: N-methyl-D-aspartate (NMDA) receptor currents; test: alcohol withdrawal hyperresponsiveness of NMDA-evoked currents in lumbar spinal cord slice motor neurons; assay type: cell-based, rat
Source text: Spinal cords were taken from young rats, and slices of these cords were made and placed in artificial cerebrospinal fluid for patch clamp electrophysiological analysis, to characterize the ability of γPKC peptides to mediate alcohol withdrawal hyperresponsiveness of N-methyl-D-aspartate (NMDA) receptor currents. FIG. 7A is a schematic diagram of the technique, where a lumbar spinal cord slice 10 is shown. The placement of a recording electrode 12 and a pipette 14 for application of NMDA relative to a motor neuron 16 is illustrated.
Sprague-Dawley rats at postnatal day 7-10 were anesthetized with halothane, decapitated, and the spinal cords were quickly removed. Slices […] thick were sectioned from the lumbar region. Whole cell voltage clamp recordings were made from visually-identified motor neurons using infrared video microscopy, a 60× water immersion lens, and a MultiClamp 700A patch clamp amplifier. Cells were held at a holding potential of −60 mV in artificial cerebrospinal fluid (ACSF) containing bicuculline methiodide ([…]), strychnine ([…]), and tetrodotoxin ([…]). Postsynaptic currents were evoked by direct pressure application of 2 mM N-methyl-D-aspartate (NMDA) from a pipette positioned near the recorded cell at 1-2 min intervals, as illustrated in FIG. 7A. The area of evoked currents during and following 100 mM ethanol (EtOH) application was measured and normalized to the average baseline current area during the 10 minutes preceding EtOH application. Data are expressed as mean +/−SEM: Statistical significance was determined by one-way ANOVA followed by Dunn's or Tukey's multiple comparison test with significance set at p<0.05.

RLVLAS (also: Tat peptide conjugate; listed as Homo sapiens) [γV5-3]
number of cells having γPKC localized in the nucleus ([1]; peptide applied 20 minutes prior to ethanol): about 14
block of γPKC translocation to the cytoplasm ([1]; peptide applied prior to ethanol exposure): effective to block γPKC translocation to the cytoplasm
mechanical allodynia, threshold withdrawal force ([2]; 7 day old rats, 5 μL of 20 μM intrathecally 5 hours after 4 g/kg 15% EtOH i.p., 6 and 7 hour post-EtOH, versus Tat carrier): attenuated mechanical allodynia
mechanical allodynia, threshold withdrawal response ([2]; 21 day old rats, 10 μL of 20 μM intrathecally 4 hours after 4 g/kg 15% EtOH i.p.): prevented a decrease in threshold withdrawal response
mechanical allodynia and thermal hyperalgesia during natural withdrawal from morphine [3]: attenuated mechanical allodynia and thermal hyperalgesia
block of ethanol withdrawal hyperresponsiveness of NMDA-evoked currents ([4]; 2 nM peptide, ethanol 100 mM 15 minutes then wash): did not completely block withdrawal hyperresponsiveness
block of ethanol withdrawal hyperresponsiveness of NMDA-evoked currents ([4]; 5-10 nM peptide, ethanol 100 mM then wash): effectively blocked ethanol withdrawal hyperresponsiveness
